# Source: patent US12521393B2, “Cytotoxicity targeting chimeras for CCR2-expressing cells” (GLAXOSMITHKLINE INTELLECTUAL PROPERTY DEVELOPMENT LIMITED, priority 2021, dated 2026)
# Tested on: endogenous target monocytes in human PBMC
# Assay: PBMC ex vivo monocyte depletion flow cytometry assay (Example 200)
# Format: cell-based
# Conditions: with anti-cotinine antibody (SEQ ID NO: 11/12), 18-24 hours, EC50 in molar, read-out: Ex Vivo Depletion Assay pEC50 (converted)
# Protocol: A human PBMC (peripheral blood mononuclear cells) monocyte depletion flow cytometry assay was developed to screen compounds in a 384-well plate format. This assay incorporated endogenous natural killer cells to deplete endogenous target monocytes.
# To screen compounds in the human PBMC monocyte depletion flow cytometry assay, 11-point dose-response curves were made from 1 mM stocks in neat DMSO by serially diluting an ARM compound of Formula (I) four-fold into a 384-well plate row-wise. These serially diluted compounds were then stamped into a flat bottom polypropylene 384-well plate (Greiner Bio-One) at 100 nL/well. Fifty microliters of 30 μg/mL anti-cotinine antibody having a heavy chain sequence of SEQ ID NO: 11 and a light chain sequence of SEQ ID NO: 12 (rabbit variable region with human IgG1 Fc domain containing a DE mutation (S239D/1332E)) that had been diluted in assay medium (RPMI 1640 (Gibco) containing 10% fetal bovine serum (Gibco), 1% Glutamax (Gibco) and 1% sodium pyruvate (Corning) was added to the wells of the plate. The plate was centrifuged for 1 min at 500 rpm (revolutions per minute) and then shaken for 5 min at room temperature. The plate was incubated for 15 minutes at 37° C./5% CO2.
# Frozen PBMC cells (HemaCare BioResearch) were thawed and centrifuged at 1,200 rpm for 4 minutes. The cells were diluted to a cell density of 2×10^6 cells/mL in assay medium. Fifty microliters of the diluted cells were added to the wells of the plate. The plate was centrifuged for 1 min at 500 rpm and incubated for 18-24 hours at 37° C./5% CO2.
# After 18-24 hours incubation, 2 μL of 6.25 μg human FC block (BD Pharmingen) that was diluted in assay medium was added to the wells of the plate. The plate was centrifuged for 1 minute at 500 rpm and then incubated at room temperature for 15 minutes. Five microliters of 750 nM Helix NP NIR (Biolegend) that had been diluted in assay medium was added to the wells of the plate. Nine microliters of antibody cocktail containing 1/5 diluted fluorescein isothiocyanate (FITC) labeled anti-CD45 antibody (Beckman Coulter), PC7 labeled anti-CD14 antibody (Beckman Coulter) and phyocoerythrin (PE) anti-CD4 antibody (Beckman Coulter) was then added to the wells of the plate. The plate was centrifuged for 1 min at 500 rpm and incubated for 30 minutes at 4-8° C. Samples from the plate were run on BD FACS Canto II flow cytometer and data was analyzed using FlowJo software.
# ARMs compounds of Formula (I) of the invention were tested for the ability to deplete monocytes in the above assay in one or more experimental runs and the results are shown in Table 3 below. Potency of the compounds of the invention is reported as a pEC50 value. The pEC50 value is the negative log of the EC50 value, wherein the EC50 value is the half maximal effective concentration measured in molar (M). For compounds tested in more than one experimental run, the pEC50 value is reported as an average or as the individual values measured
row,Compound,EC50 [nM]
1,"CC(C)N(C)[C@@H]1CC[C@H](N2CC[C@H](Nc3ncnc4ccc(C(F)(F)F)cc34)C2=O)[C@H](NC(=O)CCCNC(=O)CCCC(=O)NCCCOCCCNC(=O)C2CC(=O)N(C)C2c2cccnc2)C1 (stereo in doubt) [Example 21, N1-(4-(((1R,2S,5R)-5-(Isopropyl(methyl)amino)-2-((S)-2-oxo-3-((6-(trifluoromethyl)quinazolin-4-yl)amino)pyrrolidin-1-yl)cyclohexyl)amino)-4-oxobutyl)-N5-(3-(3-((2S,3S)-1-methyl-5-oxo-2-(pyridin-3-yl)pyrrolidine-3-carboxamido)propoxy)propyl)glutaramide]",0.631
2,"CC(C)N(C)[C@@H]1CC[C@H](N2CC[C@H](Nc3ncnc4ccc(C(F)(F)F)cc34)C2=O)[C@H](NC(=O)C23CCC(NC(=O)CCOCCOCCOCCNC(=O)[C@H]4CC(=O)N(C)[C@@H]4c4cccnc4)(CC2)CC3)C1 [Example 25, (2S,3S)-N-(2-(2-(2-(3-((4-(((1R,2S,5R)-5-(Isopropyl(methyl)amino)-2-((S)-2-oxo-3-((6-(trifluoromethyl)quinazolin-4-yl)amino)pyrrolidin-1-yl)cyclohexyl)carbamoyl)bicyclo[2.2.2]octan-1-yl)amino)-3-oxopropoxy)ethoxy)ethoxy)ethyl)-1-methyl-5-oxo-2-(pyridin-3-yl)pyrrolidine-3-carboxamide]",2
3,"CC(C)N(C)[C@@H]1CC[C@H](N2CC[C@H](Nc3ncnc4ccc(C(F)(F)F)cc34)C2=O)[C@H](NC(=O)[C@H]2C[C@H](NC(=O)CCOCCNC(=O)CCOCCNC(=O)[C@@H]3CC(=O)N(C)[C@H]3c3cccnc3)C2)C1 [Example 45, (2S,3S)-N-(2-(3-((2-(3-(((1R,3r)-3-(((1R,2S,5R)-5-(Isopropyl(methyl)amino)-2-((S)-2-oxo-3-((6-(trifluoromethyl)quinazolin-4-yl)amino)pyrrolidin-1-yl)cyclohexyl)carbamoyl)cyclobutyl)amino)-3-oxopropoxy)ethyl)amino)-3-ixopropoxy)ethyl)-1-methyl-5-oxo-2-(pyridin-3-yl)pyrrolidine-3-carboxamide]",2
4,"CC(C)N(C)[C@@H]1CC[C@H](N2CC[C@H](Nc3ncnc4ccc(C(F)(F)F)cc34)C2=O)[C@H](NC(=O)CCCOC[C@H]2CC[C@H](COCCNC(=O)[C@H]3CC(=O)N(C)[C@@H]3c3cccnc3)CC2)C1 [Example 58, (2S,3S)-N-(2-(((1R,4S)-4-((4-(((1R,2S,5R)-5-(Isopropyl(methyl)amino)-2-((S)-2-oxo-3-((6-(trifluoromethyl)quinazolin-4-yl)amino)pyrrolidin-1-yl)cyclohexyl)amino)-4-oxobutoxy)methyl)cyclohexyl)methoxy)ethyl)-1-methyl-5-oxo-2-(pyridin-3-yl)pyrrolidine-3-carboxamide]",7.94
5,CC(C)N(C)[C@@H]1CC[C@H](N2CC[C@H](Nc3ncnc4ccc(C(F)(F)F)cc34)C2=O)[C@H](NC(=O)CCCOCC23CCC(COCCNC(=O)[C@H]4CC(=O)N(C)[C@@H]4c4cccnc4)(CC2)CC3)C1 [Example 59],1.58
6,"CC(C)N(C)[C@@H]1CC[C@H](N2CC[C@H](Nc3ncnc4ccc(C(F)(F)F)cc34)C2=O)[C@H](NC2CCC(C(=O)NCCOCCOCCNC(=O)[C@H]3CC(=O)N(C)[C@@H]3c3cccnc3)CC2)C1 (stereo partly drawn) [Example 68, (2S,3S)-N-(2-(2-(2-(4-(((1R,2S,5R)-5-(Isopropyl(methyl)amino)-2-((S)-2-oxo-3-((6-(trifluoromethyl)quinazolin-4-yl)amino)pyrrolidin-1-yl)cyclohexyl)amino)cyclohexane-1-carboxamido)ethoxy)ethoxy)ethyl)-1-methyl-5-oxo-2-(pyridin-3-yl)pyrrolidine-3-carboxamide]",100000
7,"CC(C)N(C)[C@@H]1CC[C@H](N2CC[C@H](Nc3ncnc4ccc(C(F)(F)F)cc34)C2=O)[C@H](NC(=O)COCCNC(=O)CNC(=O)COCCOCCNC(=O)[C@H]2CC(=O)N(C)[C@@H]2c2cccnc2)C1 [Example 78, (2S,3S)-N-(1-(((1R,2S,5R)-5-(Isopropyl(methyl)amino)-2-((S)-2-oxo-3-((6-(trifluoromethyl)quinazolin-4-yl)amino)pyrrolidin-1-yl)cyclohexyl)amino)-1,7,10-trioxo-3,12,15-trioxa-6,9-diazaheptadecan-17-yl)-1-methyl-5-oxo-2-(pyridin-3-yl)pyrrolidine-3-carboxamide]",2.51
8,"CC(C)N(C)[C@@H]1CC[C@H](N2CC[C@H](Nc3ncnc4ccc(C(F)(F)F)cc34)C2=O)[C@H](NC(=O)COCC(=O)N2CCN(C(=O)N3CCN(C(=O)COCCNC(=O)[C@H]4CC(=O)N(C)[C@@H]4c4cccnc4)CC3)CC2)C1 [Example 84, (2S,3S)-N-(2-(2-(4-(4-(2-(2-(((1R,2S,5R)-5-(isopropyl(methyl)amino)-2-((S)-2-oxo-3-((6-(trifluoromethyl)quinazolin-4-yl)amino)pyrrolidin-1-yl)cyclohexyl)amino)-2-oxoethoxy)acetyl)piperazine-1-carbonyl)piperazin-1-yl)-2-oxoethoxy)ethyl)-1-methyl-5-oxo-2-(pyridin-3-yl)pyrrolidine-3-carboxamide]",1
9,"CC(C)N(C)[C@@H]1CC[C@H](N2CC[C@H](Nc3ncnc4ccc(C(F)(F)F)cc34)C2=O)[C@H](NC(=O)C2CCN(C3CCN(C(=O)CCCCCNC(=O)[C@H]4CC(=O)N(C)[C@@H]4c4cccnc4)CC3)CC2)C1 [Example 87, N-((1R,2S,5R)-5-(Isopropyl(methyl)amino)-2-((S)-2-oxo-3-((6-(trifluoromethyl)quinazolin-4-yl)amino)pyrrolidin-1-yl)cyclohexyl)-1'-(6-((2S,3S)-1-methyl-5-oxo-2-(pyridin-3-yl)pyrrolidine-3-carboxamido)hexanoyl)-[1,4'-bipiperidine]-4-carboxamide]",0.398
10,"CC(C)N(C)[C@@H]1CC[C@H](N2CC[C@H](Nc3ncnc4ccc(C(F)(F)F)cc34)C2=O)[C@H](NC(=O)c2cc(OCCOCCOCCOCCOCCNC(=O)[C@H]3CC(=O)N(C)[C@@H]3c3cccnc3)ccn2)C1 [Example 88, N-((1R,2S,5R)-5-(Isopropyl(methyl)amino)-2-((S)-2-oxo-3-((6-(trifluoromethyl)quinazolin-4-yl)amino)pyrrolidin-1-yl)cyclohexyl)-4-((1-((2S,3S)-1-methyl-5-oxo-2-(pyridin-3-yl)pyrrolidin-3-yl)-1-oxo-5,8,11,14-tetraoxa-2-azahexadecan-16-yl)oxy)picolinamide]",7.94
11,"CC(C)N(C)[C@@H]1CC[C@H](N2CC[C@H](Nc3ncnc4ccc(C(F)(F)F)cc34)C2=O)[C@H](NC(=O)c2cc(OCCOCCOCCOCCNC(=O)[C@H]3CC(=O)N(C)[C@@H]3c3cccnc3)ccn2)C1 [Example 89, N-((1R,2S,5R)-5-(Isopropyl(methyl)amino)-2-((S)-2-oxo-3-((6-(trifluoromethyl)quinazolin-4-yl)amino)pyrrolidin-1-yl)cyclohexyl)-4-((1-((2S,3S)-1-methyl-5-oxo-2-(pyridin-3-yl)pyrrolidin-3-yl)-1-oxo-5,8,11-trioxa-2-azatridecan-13-yl)oxy)picolinamide]",25.1
12,CC(C)N(C)[C@@H]1CC[C@H](N2CC[C@H](Nc3ncnc4ccc(C(F)(F)F)cc34)C2=O)[C@H](NC(=O)c2ccc(OC3CCN(CCOCCOCCNC(=O)[C@H]4CC(=O)N(C)[C@@H]4c4cccnc4)CC3)cc2)C1 [Example 91],0.794
13,"CC(C)N(C)[C@@H]1CC[C@H](N2CC[C@H](Nc3ncnc4ccc(C(F)(F)F)cc34)C2=O)[C@H](NC(=O)c2cnn(C3CCN(CCOCCOCCNC(=O)[C@H]4CC(=O)N(C)[C@@H]4c4cccnc4)CC3)c2)C1 [Example 92, N-((1R,2S,5R)-5-(Isopropyl(methyl)amino)-2-((S)-2-oxo-3-((6-(trifluoromethyl)quinazolin-4-yl)amino)pyrrolidin-1-yl)cyclohexyl)-1-(1-(2-(2-(2-((2S,3S)-1-methyl-5-oxo-2-(pyridin-3-yl)pyrrolidine-3-carboxamido)ethoxy)ethoxy)ethyl)piperidin-4-yl)-1H-pyrazole-4-carboxamide]",25.1
